Entries after “also recorded” stand apart in the source; their conditions may differ.
Assay: Phase 1/2 clinical study: safety, treatment-emergent adverse events
Format: in vivo
Experimental: This study includes monotherapy as well as combination treatment parts. The monotherapy part includes Phase 1 dose escalation and dose expansion as well as Phase 2. […] Phase 1 dose escalation will proceed prior to start of Phase 1b or Phase 2. Once a recommended Phase 2 dose (RP2D) is identified in Phase 1, enrollment can commence to the Phase 1b combination therapies and Phase 2 monotherapy cohorts.
Dose escalation will follow a 3+3 design starting with a 25 mg QD dose (followed by 50 mg QD (dose level cohort 2), 100 mg QD (dose level cohort 3), 150 mg QD (dose level cohort 4), 200 mg QD (dose level cohort 5), 250 mg QD (dose level cohort 6), and 300 mg QD (dose level cohort 7)). Cycle length will be 28 days.
Any toxicity, regardless of the NCI CTCAE v.5 grade, resulting in discontinuation, does reduction or considered a DLT unless the SRC determines the toxicity if clearly unrelated to study drug (i.e., related to the patient's underlying disease other medical condition or concomitant medications).

SMILES: COc1ccc(F)cc1C(=O)NCc1ccc(-c2nn([C@@H](C)C(F)(F)F)c(N)c2C(N)=O)cc1 [BTK-I, (S)-5-amino-3-(4-((5-fluoro-2-methoxybenzamido)methyl)phenyl)-1-(1,1,1-trifluoropropane-2-yl)-1H-pyrazole-4-carboxamide]
- Abdominal pain (TEAE) (25 mg QD (N = 5)): 1 (20.0) n(%)
- Anaemia (TEAE) (25 mg QD (N = 5)): 0 (0.0) n(%)
- Back pain (TEAE) (25 mg QD (N = 5)): 0 (0.0) n(%)
- Constipation (TEAE) (25 mg QD (N = 5)): 0 (0.0^ n(%)
- Contusion (TEAE) (25 mg QD (N = 5)): 0 (0.0) n(%)
- Cough (TEAE) (25 mg QD (N = 5)): 3 (60.0) n(%)
- Diarrhoea (TEAE) (25 mg QD (N = 5)): 3 (60.0) n(%)
- Dizziness (TEAE) (25 mg QD (N = 5)): 2 (40.0) n(%)
- Dyspnoea (TEAE) (25 mg QD (N = 5)): 0 (0.0) n(%)
- Fatigue (TEAE) (25 mg QD (N = 5)): 3 (60.0) n(%)
- Headache (TEAE) (25 mg QD (N = 5)): 2 (40.0) n(%)
- Nausea (TEAE) (25 mg QD (N = 5)): 2 (40.0) n(%)
- Neutropenia (TEAE) (25 mg QD (N = 5)): 0 (0.0) n(%)
- Neutrophil count decreased (TEAE) (25 mg QD (N = 5)): 1 (20.0) n(%)
- Oedema peripheral (TEAE) (25 mg QD (N = 5)): 1 (20.0) n(%)
- Rash maculopapular (TEAE) (25 mg QD (N = 5)): 0 (0.0) n(%)
- Subjects with Any TEAEs (25 mg QD (N = 5)): 5 (100.0) n(%)
- Upper respiratory tract infection (TEAE) (25 mg QD (N = 5)): 1 (20.0) n(%)
- dose limiting toxicities (25 mg to 300 mg QD): no dose limiting toxicities or dose reductions; also recorded: DLTS have not been observed
- Abdominal pain (TEAE) (50 mg QD (N = 6)): 0 (0.0) n(%)
- Anaemia (TEAE) (50 mg QD (N = 6)): 0 (0.0) n(%)
- Back pain (TEAE) (50 mg QD (N = 6)): 0 (0.0) n(%)
- Constipation (TEAE) (50 mg QD (N = 6)): 0 (0.0) n(%)
- Contusion (TEAE) (50 mg QD (N = 6)): 2 (33.3) n(%)
- Cough (TEAE) (50 mg QD (N = 6)): 2 (33.3) n(%)
- Diarrhoea (TEAE) (50 mg QD (N = 6)): 1 (16.7) n(%)
- Dizziness (TEAE) (50 mg QD (N = 6)): 0 (0.0) n(%)
- Dyspnoea (TEAE) (50 mg QD (N = 6)): 0 (0.0) n(%)
- Fatigue (TEAE) (50 mg QD (N = 6)): 3 (50.0) n(%)
- Headache (TEAE) (50 mg QD (N = 6)): 1 (16.7) n(%)
- Nausea (TEAE) (50 mg QD (N = 6)): 2 (33.3) n(%)
- Neutropenia (TEAE) (50 mg QD (N = 6)): 1 (16.7) n(%)
- Neutrophil count decreased (TEAE) (50 mg QD (N = 6)): 0 (0.0) n(%)
- Oedema peripheral (TEAE) (50 mg QD (N = 6)): 1 (16.7) n(%)
- Pyrexia (TEAE) (50 mg QD (N = 6)): 0 (0.0) n(%)
- Rash maculopapular (TEAE) (50 mg QD (N = 6)): 0 (0.0) n(%)
- Subjects with Any TEAEs (50 mg QD (N = 6)): 6 (100.0) n(%)
- Upper respiratory tract infection (TEAE) (50 mg QD (N = 6)): 3 (50.0) n(%)
- Abdominal pain (TEAE) (100 mg QD (N = 9)): 2 (2.2) n(%)
- Anaemia (TEAE) (100 mg QD (N = 9)): 2 (22.2) n(%)
- Back pain (TEAE) (100 mg QD (N = 9)): 0 (0.0) n(%)
- Constipation (TEAE) (100 mg QD (N = 9)): 0 (0.0) n(%)
- Contusion (TEAE) (100 mg QD (N = 9)): 0 (0.0) n(%)
- Cough (TEAE) (100 mg QD (N = 9)): 0 (0.0) n(%)
- Diarrhoea (TEAE) (100 mg QD (N = 9)): 3 (33.3) n(%)
- Dizziness (TEAE) (100 mg QD (N = 9)): 1 (11.1) n(%)
- Dyspnoea (TEAE) (100 mg QD (N = 9)): 2 (22.2) n(%)
- Fatigue (TEAE) (100 mg QD (N = 9)): 2 (22.2) n(%)
- Headache (TEAE) (100 mg QD (N = 9)): 1 (11.1) n(%)
- Nausea (TEAE) (100 mg QD (N = 9)): 1 (11.1) n(%)
- Neutropenia (TEAE) (100 mg QD (N = 9)): 0 (0.0) n(%)
- Neutrophil count decreased (TEAE) (100 mg QD (N = 9)): 0 (0.0) n(%)
- Oedema peripheral (TEAE) (100 mg QD (N = 9)): 0 (0.0) n(%)
- Pyrexia (TEAE) (100 mg QD (N = 9)): 1 (11.1) n(%)
- Rash maculopapular (TEAE) (100 mg QD (N = 9)): 1 (11.1) n(%)
- Subjects with Any TEAEs (100 mg QD (N = 9)): 8 (88.9) n(%)
- Upper respiratory tract infection (TEAE) (100 mg QD (N = 9)): 1 (11.1) n(%)
- Abdominal pain (TEAE) (150 mg QD (N = 20)): 1 (5.0) n(%)
- Anaemia (TEAE) (150 mg QD (N = 20)): 3 (15.0) n(%)
- Back pain (TEAE) (150 mg QD (N = 20)): 5 (25.0) n(%)
- Constipation (TEAE) (150 mg QD (N = 20)): 5 (25.0) n(%)
- Contusion (TEAE) (150 mg QD (N = 20)): 3 (15.0) n(%)
- Cough (TEAE) (150 mg QD (N = 20)): 3 (15.0) n(%)
- Diarrhoea (TEAE) (150 mg QD (N = 20)): 5 (25.0) n(%)
- Dizziness (TEAE) (150 mg QD (N = 20)): 2 (10.0) n(%)
- Dyspnoea (TEAE) (150 mg QD (N = 20)): 2 (10.0) n(%)
- Fatigue (TEAE) (150 mg QD (N = 20)): 3 (15.0) n(%)
- Headache (TEAE) (150 mg QD (N = 20)): 4 (20.0) n(%)
- Nausea (TEAE) (150 mg QD (N = 20)): 1 (5.0) n(%)
- Neutropenia (TEAE) (150 mg QD (N = 20)): 4 (20.0) n(%)
- Neutrophil count decreased (TEAE) (150 mg QD (N = 20)): 3 (15.0) n(%)
- Oedema peripheral (TEAE) (150 mg QD (N = 20)): 3 (15.0) n(%)
- Pyrexia (TEAE) (150 mg QD (N = 20)): 1 (5.0) n(%)
- Rash maculopapular (TEAE) (150 mg QD (N = 20)): 2 (10.0) n(%)
- Subjects with Any TEAEs (150 mg QD (N = 20)): 20 (100.0) n(%)
- Upper respiratory tract infection (TEAE) (150 mg QD (N = 20)): 7 (35.0) n(%)
- Abdominal pain (TEAE) (200 mg QD (N = 238)): 14 (5.9) n(%)
- Anaemia (TEAE) (200 mg QD (N = 238)): 16 (6.7) n(%)
- Back pain (TEAE) (200 mg QD (N = 238)): 14 (5.9) n(%)
- Constipation (TEAE) (200 mg QD (N = 238)): 14 (5.9) n(%)
- Contusion (TEAE) (200 mg QD (N = 238)): 28 (11.8) n(%)
- Cough (TEAE) (200 mg QD (N = 238)): 15 (6.3) n(%)
- Diarrhoea (TEAE) (200 mg QD (N = 238)): 33 (13.9) n(%)
- Dizziness (TEAE) (200 mg QD (N = 238)): 10 (4.2) n(%)
- Dyspnoea (TEAE) (200 mg QD (N = 238)): 16 (6.7) n(%)
- Fatigue (TEAE) (200 mg QD (N = 238)): 39 (16.4) n(%)
- Headache (TEAE) (200 mg QD (N = 238)): 14 (5.9) n(%)
- Nausea (TEAE) (200 mg QD (N = 238)): 16 (6.7) n(%)
- Neutropenia (TEAE) (200 mg QD (N = 238)): 15 (6.3) n(%)
- Neutrophil count decreased (TEAE) (200 mg QD (N = 238)): 10 (4.2) n(%)
- Oedema peripheral (TEAE) (200 mg QD (N = 238)): 14 (5.9) n(%)
- Pyrexia (TEAE) (200 mg QD (N = 238)): 17 (7.1) n(%)
- Rash maculopapular (TEAE) (200 mg QD (N = 238)): 12 (5.0) n(%)
- Upper respiratory tract infection (TEAE) (200 mg QD (N = 238)): 3 (1.3) n(%)
- Abdominal pain (TEAE) (250 mg QD (N = 25)): 0 (0.0) n(%)
- Anaemia (TEAE) (250 mg QD (N = 25)): 2 (8.0) n(%)
- Back pain (TEAE) (250 mg QD (N = 25)): 3 (2.0) n(%)
- Constipation (TEAE) (250 mg QD (N = 25)): 3 (12.0) n(%)
- Contusion (TEAE) (250 mg QD (N = 25)): 5 (20.0) n(%)
- Cough (TEAE) (250 mg QD (N = 25)): 3 (12.0) n(%)
- Diarrhoea (TEAE) (250 mg QD (N = 25)): 5 (20.0) n(%)
- Dizziness (TEAE) (250 mg QD (N = 25)): 1 (4.0) n(%)
- Dyspnoea (TEAE) (250 mg QD (N = 25)): 2 (8.0) n(%)
- Fatigue (TEAE) (250 mg QD (N = 25)): 10 (40.0) n(%)
- Headache (TEAE) (250 mg QD (N = 25)): 3 (12.0) n(%)
- Nausea (TEAE) (250 mg QD (N = 25)): 5 (20.0) n(%)
- Neutropenia (TEAE) (250 mg QD (N = 25)): 1 (4.0) n(%)
- Oedema peripheral (TEAE) (250 mg QD (N = 25)): 2 (8.0) n(%)
- Pyrexia (TEAE) (250 mg QD (N = 25)): 2 (8.0) n(%)
- Rash maculopapular (TEAE) (250 mg QD (N = 25)): 2 (8.0) n(%)
- Subjects with Any TEAEs (250 mg QD (N = 25)): 25 (100.0) n(%)
- Upper respiratory tract infection (TEAE) (250 mg QD (N = 25)): 6 (24.0) n(%)
- Abdominal pain (TEAE) (Overall (N = 323)): 20 (6.2) n (%)
- Anaemia (TEAE) (Overall (N = 323)): 24 (7.4) n (%)
- Back pain (TEAE) (Overall (N = 323)): 25 (7.7) n (%)
- Constipation (TEAE) (Overall (N = 323)): 25 (7.7) n (%)
- Contusion (TEAE) (Overall (N = 323)): 42 (13.0) n (%)
- Cough (TEAE) (Overall (N = 323)): 29 (9.0) n (%)
- Diarrhoea (TEAE) (Overall (N = 323)): 55 (17.0) n (%)
- Dizziness (TEAE) (Overall (N = 323)): 18 (5.6) n (%)
- Dyspnoea (TEAE) (Overall (N = 323)): 26 (8.0) n (%)
- Fatigue (TEAE) (Overall (N = 323)): 65 (20.1) n (%)
- Headache (TEAE) (Overall (N = 323)): 29 (9.0) n (%)
- Nausea (TEAE) (Overall (N = 323)): 30 (9.3) n (%)
- Neutropenia (TEAE) (Overall (N = 323)): 24 (7.4) n (%)
- Neutrophil count decreased (TEAE) (Overall (N = 323)): 22 (6.8) n (%)
- Oedema peripheral (TEAE) (Overall (N = 323)): 22 (6.8) n (%)
- Pyrexia (TEAE) (Overall (N = 323)): 23 (7.1) n (%)
- Rash maculopapular (TEAE) (Overall (N = 323)): 20 (6.2) n (%)
- Subjects with Any TEAEs (Overall (N = 323)): 264 (81.7) n (%)
- Upper respiratory tract infection (TEAE) (Overall (N = 323)): 23 (7.1) n (%)
- rates of atrial arrhythmias and major bleeding (human, in vivo): low rates
- tolerability in patients (human, in vivo): appeared to be well tolerated
- contusion, treatment emergent adverse event regardless of attribution or grade (n=42 of 323 patients): 13%
- diarrhea, treatment emergent adverse event regardless of attribution or grade (n=55 of 323 patients): 17%
- fatigue, treatment emergent adverse event regardless of attribution or grade (n=65 of 323 patients): 20%
- maximum tolerated dose (MTD) (up to 300 mg QD): lack of an MTD

Source: patent US12551463B2, “Dosing of a Bruton's tyrosine kinase inhibitor” (Loxo Oncology, Inc., priority 2019, dated 2026)
